Laboratory results reported in patent US10045983B2, “Heteroaryl pyridone and aza-pyrodine compounds” (Genentech, Inc., priority 2011, dated 2018).

Assay: CD69 Whole Blood Assay (CD69 Hu Blood FACS)
Type: cell-based, human
Settings: Lymphocyte; human whole blood, anti-IgM activated B lymphocytes, FACS; IC70; Table 2 (unit inferred); read-out: CD69 Hu Blood FACS (IC70)
Method in brief: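 Compounds tested for blocking B-cell CD69 induction by flow cytometry in human whole blood, with activation via anti-human IgM goat F(ab′)2 crosslinking of surface IgM.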

`Cc1nccc(Nc2cc(-c3cncc(N4CCn5c(cc6c5CC(C)(C)C6)C4=O)c3CO)cn(C)c2=O)n1` [Example 215, 3-[4-(hydroxymethyl)-5-[1-methyl-5-[(2-methylpyrimidin-4-yl)amino]-6-oxo-3-pyridyl]-3-pyridyl]-7,7-dimethyl-1,2,6,8-tetrahydrocyclopenta[3,4]pyrrolo[3,5-b]pyrazin-4-one] and `CCc1nccc(Nc2cc(-c3ccnc(N4CCn5c(cc6c5CC(C)(C)C6)C4=O)c3CO)cn(C)c2=O)n1` [Example 229, 3-[4-[5-[(2-ethylpyrimidin-4-yl)amino]-1-methyl-6-oxo-3-pyridyl]-3-(hydroxymethyl)-2-pyridyl]-7,7-dimethyl-1,2,6,8-tetrahydrocyclopenta[3,4]pyrrolo[3,5-b]pyrazin-4-one] are within 1.5-fold of each other in IC70: 0.457 µM for the first, 0.583 µM for the second.

`CN1CCc2nc(Nc3cc(-c4ccnc(-n5ncc6c7c(sc6c5=O)CCCC7)c4CO)cn(C)c3=O)sc2C1` [Example 216, 3-[3-(hydroxymethyl)-4-[1-methyl-5-[(5-methyl-6,7-dihydro-4H-thiazolo[5,4-c]pyridin-2-yl)amino]-6-oxo-3-pyridyl]-2-pyridyl]-6,7,8,9-tetrahydrobenzothiopheno[2,3-d]pyridazin-4-one] and `CN1CCc2nc(Nc3cc(-c4ccnc(N5CCn6c7c(c(F)c6C5=O)CCCC7)c4CO)cn(C)c3=O)sc2C1` [Example 223, 10-fluoro-2-[3-(hydroxymethyl)-4-[1-methyl-5-[(5-methyl-6,7-dihydro-4H-thiazolo[5,4-c]pyridin-2-yl)amino]-6-oxo-3-pyridyl]-2-pyridyl]-3,4,6,7,8,9-hexahydropyrazino[1,2-a]indol-1-one] are within 1.5-fold of each other in IC70: 0.357 µM for the first, 0.43 µM for the second.

Going from `Cn1cc(-c2ccnc(N3CCn4c(cc5c4CCCC5)C3=O)c2CO)cc(Nc2ccc3[nH]cnc3n2)c1=O` [Example 217, 2-[3-(hydroxymethyl)-4-[5-(1H-imidazo[4,5-b]pyridin-5-ylamino)-1-methyl-6-oxo-3-pyridyl]-2-pyridyl]-3,4,6,7,8,9-hexahydropyrazino[1,2-a]indol-1-one] to `CN1CCC(c2ccc(Nc3cc(-c4ccnc(N5CCn6c(cc7c6CCCC7)C5=O)c4CO)cn(C)c3=O)nc2)CC1` [Example 232, 2-[3-(hydroxymethyl)-4-[1-methyl-5-[[5-(1-methyl-4-piperidyl)-2-pyridyl]amino]-6-oxo-3-pyridyl]-2-pyridyl]-3,4,6,7,8,9-hexahydropyrazino[1,2-a]indol-1-one], the IC70 falls from 2.9 µM to 0.0518 µM (56-fold).

First: Cc1cc(Nc2cc(-c3ccnc(N4CCn5c(cc6c5CC(C)(C)C6)C4=O)c3CO)cn(C)c2=O)nn1C [Example 218, 3-[4-[5-[(1,5-dimethylpyrazol-3-yl)amino]-1-methyl-6-oxo-3-pyridyl]-3-(hydroxymethyl)-2-pyridyl]-7,7-dimethyl-1,2,6,8-tetrahydrocyclopenta[3,4]pyrrolo[3,5-b]pyrazin-4-one]
Second: Cn1cc(-c2ccnc(N3CCn4c(cc5c4CC(C)(C)C5)C3=O)c2CO)cc(Nc2cccc(N)n2)c1=O [Example 221, 3-[4-[5-[(6-amino-2-pyridyl)amino]-1-methyl-6-oxo-3-pyridyl]-3-(hydroxymethyl)-2-pyridyl]-7,7-dimethyl-1,2,6,8-tetrahydrocyclopenta[3,4]pyrrolo[3,5-b]pyrazin-4-one]
The IC70 of the first is 1.6-fold lower: 0.0741 µM for the first, 0.121 µM for the second.

Compared with `Cn1cc(-c2ccnc(N3CCn4c(cc5c4CC(C)(C)C5)C3=O)c2CO)nc(Nc2cccc(N)c2)c1=O` [Example 219, 3-[4-[6-(3-aminoanilino)-4-methyl-5-oxo-pyrazin-2-yl]-3-(hydroxymethyl)-2-pyridyl]-7,7-dimethyl-1,2,6,8-tetrahydrocyclopenta[3,4]pyrrolo[3,5-b]pyrazin-4-one], `Cc1nccc(Nc2cc(-c3ccnc(N4CCn5c(cc6c5CC(C)(C)C6)C4=O)c3CO)nn(C)c2=O)n1` [Example 225, 3-[3-(hydroxymethyl)-4-[1-methyl-5-[(2-methylpyrimidin-4-yl)amino]-6-oxo-pyridazin-3-yl]-2-pyridyl]-7,7-dimethyl-1,2,6,8-tetrahydrocyclopenta[3,4]pyrrolo[3,5-b]pyrazin-4-one] is 3.8-fold higher in IC70: 0.204 µM for the first, 0.766 µM for the second.

Going from `C[C@H]1CN(C2COC2)CCN1c1ccc(Nc2cc(-c3ccnc(N4CCn5c(cc6c5CCCC6)C4)c3CO)cn(C)c2=O)nc1` [Example 220, 5-[2-(3,4,6,7,8,9-hexahydro-1H-pyrazino[1,2-a]indol-2-yl)-3-(hydroxymethyl)-4-pyridyl]-1-methyl-3-[[5-[(2S)-2-methyl-4-(oxetan-3-yl)piperazin-1-yl]-2-pyridyl]amino]pyridin-2-one] to `C[C@H]1CN(C2COC2)CCN1c1ccc(Nc2cc(-c3ccnc(N4CCc5c(c(F)c6n5CCCC6)C4=O)c3CO)cn(C)c2=O)nc1` [Example 237, 10-fluoro-2-[3-(hydroxymethyl)-4-[1-methyl-5-[[5-[(2S)-2-methyl-4-(oxetan-3-yl)piperazin-1-yl]-2-pyridyl]amino]-6-oxo-3-pyridyl]-2-pyridyl]-3,4,6,7,8,9-hexahydropyrido[3,4-b]indolizin-1-one], the IC70 falls from 1.6 µM to 0.0461 µM (35-fold).

First: Cc1nccc(Nc2cc(-c3ccnc(N4CCn5c(cc6c5CC(C)(C)C6)C4=O)c3CO)c[nH]c2=O)n1 [Example 222, 3-[3-(hydroxymethyl)-4-[5-[(2-methylpyrimidin-4-yl)amino]-6-oxo-1H-pyridin-3-yl]-2-pyridyl]-7,7-dimethyl-1,2,6,8-tetrahydrocyclopenta[3,4]pyrrolo[3,5-b]pyrazin-4-one]
Second: CN1CCC(c2ccc(Nc3cc(-c4ccnc(N5CCn6c(cc7c6CC(C)(C)C7)C5=O)c4CO)cn(C)c3=O)nc2)CC1 [Example 236, 3-[3-(hydroxymethyl)-4-[1-methyl-5-[[5-(1-methyl-4-piperidyl)-2-pyridyl]amino]-6-oxo-3-pyridyl]-2-pyridyl]-7,7-dimethyl-1,2,6,8-tetrahydrocyclopenta[3,4]pyrrolo[3,5-b]pyrazin-4-one]
The IC70 of the first is 5.3-fold higher: 0.178 µM for the first, 0.0336 µM for the second.

Compared with `C[C@H]1CN(C2COC2)CCN1c1ccc(Nc2cc(-c3ccnc(N4CCn5c(cc6c5CC(C)(C)C6)C4=O)c3CO)nn(C)c2=O)nc1` [Example 224, 3-[3-(hydroxymethyl)-4-[1-methyl-5-[[5-[(2S)-2-methyl-4-(oxetan-3-yl)piperazin-1-yl]-2-pyridyl]amino]-6-oxo-pyridazin-3-yl]-2-pyridyl]-7,7-dimethyl-1,2,6,8-tetrahydrocyclopenta[3,4]pyrrolo[3,5-b]pyrazin-4-one], `C[C@H]1CN(C2COC2)CCN1c1cnc(Nc2cc(-c3ccnc(N4CCn5c(cc6c5CC(C)(C)C6)C4=O)c3CO)cn(C)c2=O)cn1` [Example 235, 3-[3-(hydroxymethyl)-4-[1-methyl-5-[[5-[(2S)-2-methyl-4-(oxetan-3-yl)piperazin-1-yl]pyrazin-2-yl]amino]-6-oxo-3-pyridyl]-2-pyridyl]-7,7-dimethyl-1,2,6,8-tetrahydrocyclopenta[3,4]pyrrolo[3,5-b]pyrazin-4-one] is 3.6-fold higher in IC70: 0.0307 µM for the first, 0.112 µM for the second.

Compared with `Cn1nc(-c2ccnc(N3CCn4c(cc5c4CC(C)(C)C5)C3=O)c2CO)cc(Nc2ccc(C(=O)N3CCOCC3)cn2)c1=O` [Example 226, 3-[3-(hydroxymethyl)-4-[1-methyl-5-[[5-(morpholine-4-carbonyl)-2-pyridyl]amino]-6-oxo-pyridazin-3-yl]-2-pyridyl]-7,7-dimethyl-1,2,6,8-tetrahydrocyclopenta[3,4]pyrrolo[3,5-b]pyrazin-4-one], `Cn1nc(-c2ccnc(N3CCn4c(cc5c4CCCC5)C3=O)c2CO)cc(Nc2ccc(C(=O)N3CCOCC3)cn2)c1=O` [Example 227, 2-[3-(hydroxymethyl)-4-[1-methyl-5-[[5-(morpholine-4-carbonyl)-2-pyridyl]amino]-6-oxo-pyridazin-3-yl]-2-pyridyl]-3,4,6,7,8,9-hexahydropyrazino[1,2-a]indol-1-one] is 6.2-fold higher in IC70: 0.117 µM for the first, 0.73 µM for the second.

Going from `C[C@H]1CN(C2COC2)CCN1c1cnc(Nc2cc(-c3ccnc(N4CCn5c(cc6c5CCCC6)C4=O)c3CO)cn(C)c2=O)cn1` [Example 228, 2-[3-(hydroxymethyl)-4-[1-methyl-5-[[5-[(2S)-2-methyl-4-(oxetan-3-yl)piperazin-1-yl]pyrazin-2-yl]amino]-6-oxo-3-pyridyl]-2-pyridyl]-3,4,6,7,8,9-hexahydropyrazino[1,2-a]indol-1-one] to `C[C@H]1CN(C2COC2)CCN1c1cnc(Nc2cc(-c3ccnc(-n4ncc5c6c(sc5c4=O)CCCC6)c3CO)cn(C)c2=O)cn1` [Example 230, 3-[3-(hydroxymethyl)-4-[1-methyl-5-[[5-[(2S)-2-methyl-4-(oxetan-3-yl)piperazin-1-yl]pyrazin-2-yl]amino]-6-oxo-3-pyridyl]-2-pyridyl]-6,7,8,9-tetrahydrobenzothiopheno[2,3-d]pyridazin-4-one], the IC70 falls from 0.369 µM to 0.179 µM (2.1-fold).

Going from `C[C@H]1CN(C2COC2)CCN1c1ccc(Nc2cc(-c3ccnc(N4CCn5c6c(c(F)c5C4=O)CCCC6)c3CO)nn(C)c2=O)nc1` [Example 231, 10-fluoro-2-[3-(hydroxymethyl)-4-[1-methyl-5-[[5-[(2S)-2-methyl-4-(oxetan-3-yl)piperazin-1-yl]-2-pyridyl]amino]-6-oxo-pyridazin-3-yl]-2-pyridyl]-3,4,6,7,8,9-hexahydropyrazino[1,2-a]indol-1-one] to `CC(=O)N1CCc2nc(Nc3cc(-c4ccnc(N5CCn6c7c(c(F)c6C5=O)CCCC7)c4CO)cn(C)c3=O)sc2C1` [Example 234, 2-[4-[5-[(5-acetyl-6,7-dihydro-4H-thiazolo[5,4-c]pyridin-2-yl)amino]-1-methyl-6-oxo-3-pyridyl]-3-(hydroxymethyl)-2-pyridyl]-10-fluoro-3,4,6,7,8,9-hexahydropyrazino[1,2-a]indol-1-one], the IC70 rises from 0.0624 µM to 0.183 µM (2.9-fold).

With `Cn1cc(-c2ccnc(N3CCn4c(cc5c4CC(C)(C)C5)C3=O)c2CO)cc(Nc2nc3c(s2)CNCC3)c1=O` [Example 233, 3-[3-(hydroxymethyl)-4-[1-methyl-6-oxo-5-(4,5,6,7-tetrahydrothiazolo[5,4-c]pyridin-2-ylamino)-3-pyridyl]-2-pyridyl]-7,7-dimethyl-1,2,6,8-tetrahydrocyclopenta[3,4]pyrrolo[3,5-b]pyrazin-4-one] the IC70 was 0.0657 µM.
